Assay results reported in US20120040955A1 (priority 2009, published 2012).

Key:
JAK2 = target: T1, JAK2 (Homo sapiens, UniProt O60674); assay: kinobeads assay (competition with affinity matrix in mixed Molt4/Ramos cell lysate, dot blot detection), JAK2; type: binding; conditions: activity level
T1 construct: endogenous in cells; host or cells: Mixed Molt4 / Ramos cell lysate (1:2)
Method: (§1) The compounds of the present invention as described in the previous examples were tested in a kinobeads assay as described for ZAP-70 (WO-A 2007/137867). Briefly, test compounds (at various concentrations) and the affinity matrix with the immobilized aminopyrido-pyrimidine ligand 24 were added to cell lysate aliquots and allowed to bind to the proteins in the lysate sample. After the incubation time the beads with captured proteins were separated from the lysate. Bound proteins were then eluted and the presence of, JAK2 and JAK3 was detected and quantified using specific antibodies in a dot blot procedure and the Odyssey infrared detection system. Dose response curves for individual kinases were generated and IC50 values calculated. Kinobeads assays for ZAP-70 (WO-A 2007/137867) and for kinase selectivity profiling (WO-A 2006/134056) have been previously described.
(§2) 5× DP buffer: 250 mM Tris-HCl pH 7.4, 25% Glycerol, 7.5 mM MgCl2, 750 mM NaCl, 5 mM Na3VO4; filter the 5× DP buffer through a 0.22 μm filter and store in aliquots at −80° C. The 5× DP buffer is diluted with H2O to 1× DP buffer containing 1 mM DTT and 25 mM NaF.
(§3) Stock solutions of test compounds were prepared in DMSO. In a 96 well plate 30 μl solution of diluted test compounds at 5 mM in DMSO were prepared. Starting with this solution a 1:3 dilution series (9 steps) was prepared. For control experiments (no test compound) a buffer containing 2% DMSO was used.
(§4) Molt4 cells (ATCC catalogue number CRL-1582) and Ramos cells (ATCC catalogue number CRL-1596) were grown in 1 litre Spinner flasks (Integra Biosciences, #182101) in suspension in RPMI 1640 medium (Invitrogen, #21875-034) supplemented with 10% Fetal Bovine Serum (Invitrogen) at a density between 0.15×10^6 and 1.2×10^6 cells/ml. Cells were harvested by centrifugation, washed once with 1× PBS buffer (Invitrogen, #14190-094) and cell pellets were frozen in liquid nitrogen and subsequently stored at −80° C. Cells were homogenized in a Potter S homogenizer in lysis buffer: 50 mM Tris-HCl, 0.8% NP40, 5% glycerol, 150 mM NaCl, 1.5 mM MgCl2, 25 mM NaF, 1 mM sodium vanadate, 1 mM DTT, pH 7.5. One complete EDTA-free tablet (protease inhibitor cocktail, Roche Diagnostics, 1873580) per 25 ml buffer was added. The material was dounced 10 times using a mechanized POTTER S, transferred to 50 ml falcon tubes, incubated for 30 minutes on ice and spun down for 10 min at 20,000 g at 4° C. (10,000 rpm in Sorvall SLA600, precooled). The supernatant was transferred to an ultracentrifuge (UZ)-polycarbonate tube (Beckmann, 355654) and spun for 1 hour at 100.000 g at 4° C. (33.500 rpm in Ti50.2, precooled). The supernatant was transferred again to a fresh 50 ml falcon tube, the protein concentration was determined by a Bradford assay (BioRad) and samples containing 50 mg of protein per aliquot were prepared. The samples were immediately used for experiments or frozen in liquid nitrogen and stored frozen at −80° C.
(§5) Cell lysate (approximately 50 mg protein per plate) was thawed in a water bath at room temperature and then kept on ice. To the thawed cell lysate 1× DP 0.8% NP40 buffer containing protease inhibitors (1 tablet for 25 ml buffer; EDTA-free protease inhibitor cocktail; Roche Diagnostics 1873580) was added in order to reach a final protein concentration of 5 mg/ml total protein. The diluted cell lysate was stored on ice. Mixed Molt4/Ramos lysate was prepared by combining one volume of Molt4 lysate and two volumes of Ramos lysate (ratio 1:2).
(§6) To a 96 well filter plate (Multiscreen HTS, BV Filter Plates, Millipore #MSBVN1250) were added per well: 100 μl affinity matrix (3% beads slurry), 3 μl of compound solution, and 50 μl of diluted lysate. Plates were sealed and incubated for three hours in a cold room on a plate shaker (Heidolph tiramax 1000) at 750 rpm. Afterwards the plate was washed twice with 230 μl washing buffer (1× DP 0.4% NP40). […]

JAK3 = target: T2, JAK3 (Homo sapiens, UniProt P52333); assay: kinobeads assay (competition with affinity matrix in mixed Molt4/Ramos cell lysate, dot blot detection), JAK3; type: binding; conditions: activity level
T2 construct: endogenous in cells; host or cells: Mixed Molt4 / Ramos cell lysate (1:2)
T2 sequence (P52333 1-1124): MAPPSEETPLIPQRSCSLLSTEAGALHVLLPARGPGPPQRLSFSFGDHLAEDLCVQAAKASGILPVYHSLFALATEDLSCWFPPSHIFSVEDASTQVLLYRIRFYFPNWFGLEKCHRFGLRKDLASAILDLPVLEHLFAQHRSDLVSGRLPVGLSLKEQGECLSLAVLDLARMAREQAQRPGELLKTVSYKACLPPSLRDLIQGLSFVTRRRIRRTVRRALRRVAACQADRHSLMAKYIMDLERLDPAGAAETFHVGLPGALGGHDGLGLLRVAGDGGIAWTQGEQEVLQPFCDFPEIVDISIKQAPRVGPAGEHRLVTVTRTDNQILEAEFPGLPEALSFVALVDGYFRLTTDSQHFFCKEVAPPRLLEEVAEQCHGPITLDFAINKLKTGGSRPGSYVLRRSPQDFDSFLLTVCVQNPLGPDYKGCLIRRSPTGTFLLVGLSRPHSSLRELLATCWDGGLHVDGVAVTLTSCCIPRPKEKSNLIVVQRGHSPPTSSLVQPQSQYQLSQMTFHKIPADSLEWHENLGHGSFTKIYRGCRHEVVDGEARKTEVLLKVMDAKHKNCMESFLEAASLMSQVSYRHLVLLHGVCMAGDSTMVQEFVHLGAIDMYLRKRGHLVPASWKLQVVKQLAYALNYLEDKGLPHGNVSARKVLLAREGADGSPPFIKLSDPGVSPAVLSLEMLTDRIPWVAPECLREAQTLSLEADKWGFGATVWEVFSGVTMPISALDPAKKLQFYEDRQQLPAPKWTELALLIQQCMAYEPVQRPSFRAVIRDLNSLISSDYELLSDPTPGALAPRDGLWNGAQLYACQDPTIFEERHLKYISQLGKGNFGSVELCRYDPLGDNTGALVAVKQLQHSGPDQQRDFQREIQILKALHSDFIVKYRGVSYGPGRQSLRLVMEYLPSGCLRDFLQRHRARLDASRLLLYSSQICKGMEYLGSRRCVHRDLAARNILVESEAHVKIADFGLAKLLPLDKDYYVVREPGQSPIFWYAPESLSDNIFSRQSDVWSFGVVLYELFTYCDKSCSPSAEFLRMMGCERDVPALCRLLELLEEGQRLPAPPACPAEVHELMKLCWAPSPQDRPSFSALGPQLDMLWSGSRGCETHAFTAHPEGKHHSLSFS
Method: as §1, §2, §3, §4, §5, §6

T1 sequence (O60674 whole entry): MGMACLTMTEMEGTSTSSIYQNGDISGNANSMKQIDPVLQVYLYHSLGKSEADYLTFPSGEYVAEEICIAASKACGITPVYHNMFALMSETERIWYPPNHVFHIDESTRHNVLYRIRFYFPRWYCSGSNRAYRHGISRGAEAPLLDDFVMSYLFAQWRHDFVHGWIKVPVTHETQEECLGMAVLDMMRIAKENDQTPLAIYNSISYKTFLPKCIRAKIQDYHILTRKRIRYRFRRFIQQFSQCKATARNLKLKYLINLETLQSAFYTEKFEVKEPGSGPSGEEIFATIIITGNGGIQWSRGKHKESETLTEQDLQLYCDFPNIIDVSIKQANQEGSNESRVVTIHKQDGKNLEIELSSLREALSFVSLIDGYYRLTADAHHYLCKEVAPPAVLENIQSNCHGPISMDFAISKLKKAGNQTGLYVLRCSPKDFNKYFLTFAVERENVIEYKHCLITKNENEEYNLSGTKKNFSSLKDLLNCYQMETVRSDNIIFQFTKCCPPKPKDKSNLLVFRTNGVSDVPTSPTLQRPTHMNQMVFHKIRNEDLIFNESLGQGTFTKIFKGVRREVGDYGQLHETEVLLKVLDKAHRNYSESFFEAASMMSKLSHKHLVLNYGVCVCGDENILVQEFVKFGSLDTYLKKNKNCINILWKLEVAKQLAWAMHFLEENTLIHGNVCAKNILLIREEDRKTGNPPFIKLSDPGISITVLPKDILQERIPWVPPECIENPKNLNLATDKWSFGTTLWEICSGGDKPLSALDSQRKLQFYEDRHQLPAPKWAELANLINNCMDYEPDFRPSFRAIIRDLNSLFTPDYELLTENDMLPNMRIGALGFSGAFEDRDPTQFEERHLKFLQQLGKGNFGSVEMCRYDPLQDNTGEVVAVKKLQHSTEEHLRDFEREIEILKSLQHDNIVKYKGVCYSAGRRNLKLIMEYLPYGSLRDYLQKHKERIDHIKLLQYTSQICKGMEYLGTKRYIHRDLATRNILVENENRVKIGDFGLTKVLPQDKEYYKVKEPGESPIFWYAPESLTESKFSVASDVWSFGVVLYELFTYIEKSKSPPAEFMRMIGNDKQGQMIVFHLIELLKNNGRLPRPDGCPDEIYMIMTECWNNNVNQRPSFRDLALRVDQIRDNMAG

Row | IC50 (JAK2) [µM] | IC50 (JAK3) [µM] | SMILES
1 | > 10 | < 0.1 | Cc1cccc(Nc2nc(Nc3cc(-n4cnnn4)ccc3F)ncc2F)c1NS(C)(=O)=O [Example 4, N-(2-(5-fluoro-2-(2-fluoro-5-(1H-tetrazol-1-yl)phenylamino)pyrimidin-4-ylamino)-6-methylphenyl)methanesulfonamide]
2 | 1 to 10 | < 0.1 | CS(=O)(=O)Nc1ccccc1Nc1nc(Nc2cc(C(=O)NCC#N)ccc2F)ncc1Cl [Example 25]
3 | 0.1 to 1 | < 0.1 | COc1ccc(Nc2nc(Nc3cc(-n4cnnn4)ccc3F)ncc2Cl)c(NS(C)(=O)=O)c1 [Example 10, N-(2-(5-chloro-2-(2-fluoro-5-(1H-tetrazol-1-yl)phenylamino)pyrimidin-4-ylamino)-5-methoxyphenyl)methanesulfonamide]
4 | > 10 | < 0.1 | CS(=O)(=O)Nc1ccccc1Nc1nc(Nc2cc(C(=O)N3CCOCC3)ccc2F)ncc1Cl [Example 54, N-(2-(5-chloro-2-(2-fluoro-5-(morpholine-4-carbonyl)phenylamino)pyrimidin-4-ylamino)phenyl)methanesulfonamide]
5 | 0.1 to 1 | < 0.1 | CS(=O)(=O)Nc1c(F)cccc1Nc1nc(Nc2cc(-n3cnnn3)ccc2F)ncc1Cl [Example 55, N-(2-(5-chloro-2-(2-fluoro-5-(1H-tetrazol-1-yl)phenylamino)pyrimidin-4-ylamino)-6-fluorophenyl)methanesulfonamide]
6 | > 10 | 0.1 to 1 | CS(=O)(=O)Nc1ccccc1Nc1nc(Nc2ccc(N3CCOCC3)cc2F)ncc1F [Example 2, N-(2-(5-fluoro-2-(2-fluoro-4-morpholinophenylamino)pyrimidin-4-ylamino)phenyl)methanesulfonamide]
7 | > 10 | 0.1 to 1 | CS(=O)(=O)Nc1ccccc1Nc1nc(Nc2cc(C(N)=O)ccc2F)ncc1F [Example 29, 4-fluoro-3-(5-fluoro-4-(2-(methylsulfonamido)phenylamino)pyrimidin-2-ylamino)benzamide]
8 | > 10 | < 0.1 | CCNC(=O)c1ccc(F)c(Nc2ncc(Cl)c(Nc3ccccc3NS(=O)(=O)CC)n2)c1 [Example 39, 3-(5-chloro-4-(2-(ethylsulfonamido)phenylamino)pyrimidin-2-ylamino)-N-ethyl-4-fluorobenzamide]
9 | 1 to 10 | < 0.1 | CC(C)NC(=O)c1ccc(Nc2ncc(Cl)c(Nc3ccccc3NS(C)(=O)=O)n2)c(F)c1F [Example 58, 4-((5-chloro-4-((2-(methylsulfonamido)phenyl)amino)pyrimidin-2-yl)amino)-2,3-difluoro-N-isopropylbenzamide]
10 | > 10 | < 0.1 | Cc1cccc(Nc2nc(Nc3cc(C(=O)NCCO)ccc3F)ncc2Cl)c1NS(C)(=O)=O [Example 59, 3-((5-chloro-4-((3-methyl-2-(methylsulfonamido)phenyl)amino)pyrimidin-2-yl)amino)-4-fluoro-N-(2-hydroxyethyl)benzamide]
11 | 0.1 to 1 | < 0.1 | CN(c1ccccc1Nc1nc(Nc2cc(-n3cnnn3)ccc2F)ncc1F)S(C)(=O)=O [Example 13, N-(2-(5-fluoro-2-(2-fluoro-5-(1H-tetrazol-1-yl)phenylamino)pyrimidin-4-ylamino)phenyl)-N-methylmethanesulfonamide]
12 | > 10 | < 0.1 | CS(=O)(=O)Nc1ccccc1Nc1nc(Nc2cc(C#N)ccc2F)ncc1Cl [Example 28, N-(2-(5-chloro-2-(5-cyano-2-fluorophenylamino)pyrimidin-4-ylamino)phenyl)methanesulfonamide]
13 | 1 to 10 | < 0.1 | CNC(=O)c1ccc(F)c(Nc2ncc(Cl)c(Nc3ccccc3NS(C)(=O)=O)n2)c1 [Example 21, 3-(5-chloro-4-(2-(methylsulfonamido)phenylamino)pyrimidin-2-ylamino)-4-fluoro-N-methybenzamide]
14 | > 10 | 0.1 to 1 | CS(=O)(=O)Nc1ccccc1Nc1nc(Nc2ccc(C#N)cc2F)ncc1Cl [Example 26, N-(2-(5-chloro-2-(4-cyano-2-fluorophenylamino)pyrimidin-4-ylamino)phenyl)methanesulfonamide]
15 | > 10 | < 0.1 | CCS(=O)(=O)Nc1ccccc1Nc1nc(Nc2cc(C(=O)NC3CC3)ccc2F)ncc1Cl [Example 42, 3-(5-chloro-4-(2-(ethylsulfonamido)phenylamino)pyrimidin-2-ylamino)-N-cyclopropyl-4-fluorobenzamide]
16 | 0.1 to 1 | < 0.1 | CCNC(=O)c1ccc(F)c(Nc2ncc(Cl)c(Nc3ccccc3NS(C)(=O)=O)n2)c1 [Example 14]
17 | > 10 | 0.1 to 1 | CNC(=O)c1ccc(F)c(Nc2ncc(F)c(Nc3ccccc3NS(C)(=O)=O)n2)c1 [Example 30, 3-(5-fluoro-4-(2-(methylsulfonamido)phenylamino)pyrimidin-2-ylamino)-4-fluoro-N-methybenzamide]
18 | > 10 | < 0.1 | COCCNC(=O)c1ccc(F)c(Nc2ncc(Cl)c(Nc3ccccc3NS(C)(=O)=O)n2)c1 [Example 53, 3-(5-chloro-4-(2-(methylsulfonamido)phenylamino)pyrimidin-2-ylamino)-4-fluoro-N-(2-methoxyethyl)benzamide]
19 | 1 to 10 | < 0.1 | CNC(=O)c1cccc(Nc2ncc(Cl)c(Nc3ccccc3NS(C)(=O)=O)n2)c1F [Example 56, 3-(5-chloro-4-(2-(methylsulfonamido)phenylamino)pyrimidin-2-ylamino)-2-fluoro-N-methylbenzamide]
